In patent publication US12558430B2, “Dual amylin and calcitonin receptor agonists and uses thereof” (Eli Lilly and Company, priority 2020, dated 2026):
Starred links: 1 amine or outer side, 2 acyl side, 3 side chain; linkers in the order of their positions; H or OH if unused. Non-standard residues stand in square brackets, D forms with d. Residues, ends and D or L forms follow the SMILES beside them. Groups on a side chain read outwards from the residue. *: point of attachment. C20 diacid = O=C(O)CCCCCCCCCCCCCCCCCCC(=O)*; γGlu = O=C(O)[C@H](CCC(=O)[*:2])N[*:1]; AEEA = NCCOCCOCC(=O)O; Aib = CC(C)(N)C(=O)O

Key:
[1] = test system: DIO male Long Evans rats; test: DIO rats: Compound II in combination with other incretin compounds; assay type: in vivo, rat; settings: mean ± SEM; for Cumulative Food Intake: 14-day treatment period; for Body Weight Change: Day −1 to Day 14
Procedure: This study is conducted to investigate the effect of Compound II for diabetes and/or obesity conditions in DIO rats when administered in combination with other incretin compounds, including a GLP-1 agonist (Compound III), oxyntomodulin analog (Compound IV), and a triagonist of glucagon, GLP-1, and GIP (Compound V). Diet-induced obese (DIO) male Long Evans (Envigo) rats, maintained on a calorie rich diet since arrival at Lilly (TD95217; Teklad, Madison, Wis.), are used in the following studies. Animals are individually housed in a temperature-controlled (24° C.) facility with 12-hour light/dark cycle (lights on 2200) and free access to food (TD95217) and water.
The rats are randomized according to their body weight, so that each experimental group of animals would have similar body weight. The body weights range from 529 to 823 grams.
Each group contains five rats. Vehicle and Compound II (1 nmol/kg) are dissolved in vehicle (40 mM Tris-HCl pH8+0.02% PS80) and are administered by subcutaneous (SC) injection (1 mL/kg) to ad libitum fed DIO rats 30 to 90 minutes prior to the onset of the dark cycle every 3 days for 14 days. SC injections are made on Days 1, 4, 7, 10 and 13. Body weight and food intake are measured daily throughout the study. Absolute changes in body weight are calculated by subtracting the body weight of the same animal prior to the first injection of molecule.
At the end of the study, blood is collected to measure blood glucose and plasma insulin. Blood glucose is measured by AccuChek glucometers (Roche, Indianapolis, Ind.). Insulin is measured by ELISA (MSD, Rockville, Md.).
All data are presented as mean±SEM of 5 animals per group. Statistical analysis is performed using one-way ANOVA, followed by Tukey's multiple comparison test to compare treatment groups to vehicle group or each other. Significant differences are identified at p<0.05.

[2] = target: human AMY1 receptor (Homo sapiens, UniProt O60894+P30988); test: hAMY1 cAMP functional assay (HTRF); assay type: cell-based
Procedure: The AMY1 and CT receptors are GPCRs that are functionally coupled to Gαs proteins. Stimulation of these receptors results in an increased production of intracellular cAMP, which can be detected using standard in vitro technologies. Human AMY1 or CT receptors are stably expressed in human urinary bladder cells (UM-UC-3) cells under control of a pcDNA (CALCR) or pCMV piggybac (RAMP1) expression vector. AMY1 cells are cultured in MEM 1X (Corning) supplemented with 10% FBS, 1% antibiotic/antimycotic solution, 1 mM sodium pyruvate, 1X MEM NEAA, 1X GlutaMAX-I, 200 μg/mL hygromycin B, and 0.4 μg/mL puromycin. CT cells are cultured in the same medium except that it lacks the puromycin. Cultured cells are grown to 70% confluency, and then incubated overnight with fresh medium.
On the assay day, 10 μL of assay buffer (phenol red free MEM (Corning, cat #17-305-CV), 0.1% casein, 0.5 mM IBMX, 5 mM HEPES, pH 7.4) is dispensed into each well of white poly-D-lysine coated 384-well plates (Corning cat #354661). […]
The amount of intracellular cAMP is quantitated using HTRF technology (Homogeneous Time Resolved Fluorescence; Cisbio) as per vendor instructions. […] The HTRF signal is immediately detected using an Envision plate reader (Perkin-Elmer) to calculate the ratio of fluorescence at 665 to 620 nm. […]

[3] = target: T1, human CT receptor (Homo sapiens, UniProt P30988); test: hCT cAMP functional assay (HTRF); assay type: cell-based
T1 sequence (P30988 25-474): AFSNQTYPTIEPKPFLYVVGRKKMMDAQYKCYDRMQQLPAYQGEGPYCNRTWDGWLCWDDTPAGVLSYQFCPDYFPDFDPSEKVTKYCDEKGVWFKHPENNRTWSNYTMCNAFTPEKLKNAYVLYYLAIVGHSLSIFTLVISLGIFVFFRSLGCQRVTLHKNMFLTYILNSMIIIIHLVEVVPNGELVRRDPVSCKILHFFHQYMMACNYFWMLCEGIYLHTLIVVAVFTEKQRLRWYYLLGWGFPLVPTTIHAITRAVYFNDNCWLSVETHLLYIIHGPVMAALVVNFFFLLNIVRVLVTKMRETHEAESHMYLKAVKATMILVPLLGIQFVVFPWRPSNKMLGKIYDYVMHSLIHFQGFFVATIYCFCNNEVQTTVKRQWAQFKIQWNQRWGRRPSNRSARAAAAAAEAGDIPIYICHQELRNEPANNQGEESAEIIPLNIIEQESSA
Procedure: The AMY1 and CT receptors are GPCRs that are functionally coupled to Gαs proteins. […] Human AMY1 or CT receptors are stably expressed in human urinary bladder cells (UM-UC-3) cells under control of a pcDNA (CALCR) or pCMV piggybac (RAMP1) expression vector. AMY1 cells are cultured in MEM 1X (Corning) supplemented with 10% FBS, 1% antibiotic/antimycotic solution, 1 mM sodium pyruvate, 1X MEM NEAA, 1X GlutaMAX-I, 200 μg/mL hygromycin B, and 0.4 μg/mL puromycin. CT cells are cultured in the same medium except that it lacks the puromycin. Cultured cells are grown to 70% confluency, and then incubated overnight with fresh medium.
Peptides diluted in DMSO are added (200 nL/well) in a 1:3 dilution series using ECHO acoustic liquid handler (Beckman). Cultured cells are detached with TrypLE Express (Gibco), resuspended in assay buffer, and 10 μL containing 1200 cells/well (hCT) or 1500 cells/well (hAMY1) are dispensed into each well. The plates are incubated at room temperature for 1 hour.
The amount of intracellular cAMP is quantitated using HTRF technology (Homogeneous Time Resolved Fluorescence; Cisbio) as per vendor instructions. Briefly, 10 μL cAMP-d2 conjugate and 10 μL anti-cAMP-cryptate conjugate in lysis buffer are incubated with the treated cells at room temperature for 60 min. […]

Sequence of human AMY1 receptor (O60894 27-148, one chain of several): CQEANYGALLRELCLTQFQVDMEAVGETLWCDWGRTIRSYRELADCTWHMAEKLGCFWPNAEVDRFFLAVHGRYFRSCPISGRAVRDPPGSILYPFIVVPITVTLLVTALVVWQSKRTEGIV

## H-Aib-QGTFTSDYSKYLDEKKAK((2-[2-(2-Amino-ethoxy)-ethoxy]-acetyl)2-(γGlu)-CO-(CH2)18-CO2H)EFVEWLLEGGPSSG-NH2 (H-H[Aib]QGTFTSDYSKYLDEKKAK([AEEA-AEEA-γGlu-C20 diacid])EFVEWLLEGGPSSG-NH2) [Compound IV, oxyntomodulin analog]
[1]; 10 nmol/kg SC every three days
  Cumulative Food Intake: 165.86 ± 7.45 g
  Body Weight Change: -50.24 ± 6.36 g

## Y-Aib-QGTFTSDYSI-αMeL-LDKK((2-[2-(2-Amino-ethoxy)-ethoxy]-acetyl)-(γGlu)-CO-(CH2)18-CO2H)AQ-Aib-AFIEYLLEGGPSSGAPPPS-NH2 (YXQGTFTSDYSIXLDKKAQXAFIEYLLEGGPSSGAPPPS; Aib, αMeL; lipidated Lys; C-terminal amide; SITE 2 X at position 2 is Aib; SITE 13 X at position 13 is alpha-methyl-Leu; MOD_RES 17 The Lys at position 17 is chemically modified by conjugation of the epsilon amino group of the Lys sidechain with 2-[2-(2-Amino-ethoxy)-ethoxy]-acetyl)-(gamma-Glu)-CO-(CH2)18-CO2H; SITE 20 X at position 20 is Aib; MOD_RES 39 C-terminus is amidated) [Compound V, triagonist of glucagon, GLP-1, and GIP]
[1]; 3 nmol/kg SC every three days
  Cumulative Food Intake: 157.50 ± 10.63 g
  Body Weight Change: -43.28 ± 2.54 g

## CC(=O)N[C@@H](C)C(=O)N[C@@H](CO)C(=O)N[C@@H](Cc1c[nH]cn1)C(=O)N[C@@H](CC(C)C)C(=O)N[C@@H](CO)C(=O)N[C@H](C(=O)N[C@@H](C)C(=O)N[C@H](C(=O)N[C@@H](CC(C)C)C(=O)NCC(=O)N[C@@H](CCCCN)C(=O)N[C@@H](CC(C)C)C(=O)N[C@@H](CO)C(=O)NC(C)(C)C(=O)N[C@@H](CCC(=O)O)C(=O)N[C@@H](CC(C)C)C(=O)N[C@@H](Cc1c[nH]cn1)C(=O)N[C@@H](CCCCN)C(=O)N[C@@H](CC(C)C)C(=O)N[C@@H](CCC(=O)O)C(=O)N[C@@H](CC(=O)O)C(=O)N[C@@H](Cc1ccc(O)cc1)C(=O)N1CCC[C@H]1C(=O)N[C@@H](CCCNC(=N)N)C(=O)N[C@H](C(=O)N[C@@H](CC(=O)O)C(=O)N[C@H](C(=O)NCC(=O)N[C@@H](C)C(=O)N[C@@H](CCC(=O)O)C(=O)N[C@@H](CO)C(=O)N1CCC[C@H]1C(N)=O)C(C)C)[C@@H](C)O)C(C)C)[C@@H](C)O [Compound I] (Ac-ASHLSTAVLGKLS[Aib]ELHKLEDYPRTDVGAESP-NH2)
[2]
  EC50: 49.3 ± 8.04 pM
[3]
  EC50: 31.7 ± 5.8 pM
